Results: US20220062240A1, “METHODS OF TREATING CANCER USING A CLK INHIBITOR” (BioSplice Therapeutics, Inc., priority 2018, published 2022)
pEC50: −log10 of the molar value. Read-outs that look alike come from different tables or passages of the source.

What was measured:
[1] = biological target: T1, CLK2 (Homo sapiens, UniProt P49760); assay: CLK2 kinase activity assay (Z-lyte, Ser/Thr 6 peptide); type: biochemical; conditions: recombinant CLK2 kinase, ATP 60 μM; read-out: EC50
T1 construct: purchased Thermo Fisher (Life Technologies), Z'-LYTE Kinase Assay Kits
T1 sequence (P49760 whole entry): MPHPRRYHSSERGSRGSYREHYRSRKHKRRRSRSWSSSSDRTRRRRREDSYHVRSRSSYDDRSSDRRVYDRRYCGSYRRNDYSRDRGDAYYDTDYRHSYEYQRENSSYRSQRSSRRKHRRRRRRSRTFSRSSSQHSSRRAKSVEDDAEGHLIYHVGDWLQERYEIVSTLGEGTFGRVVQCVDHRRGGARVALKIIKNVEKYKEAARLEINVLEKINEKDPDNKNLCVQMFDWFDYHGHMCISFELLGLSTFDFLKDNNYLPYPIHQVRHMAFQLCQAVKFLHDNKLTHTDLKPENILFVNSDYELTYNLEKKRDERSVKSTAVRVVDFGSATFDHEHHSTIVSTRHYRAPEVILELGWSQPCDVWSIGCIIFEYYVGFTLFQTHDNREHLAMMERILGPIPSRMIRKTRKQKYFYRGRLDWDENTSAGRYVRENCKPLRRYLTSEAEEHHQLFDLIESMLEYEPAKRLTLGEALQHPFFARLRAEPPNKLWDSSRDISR
Method: All reactions were performed in duplicate.

[2] = biological target: CLK3 (Homo sapiens, UniProt P49761); assay: CLK3 kinase activity assay (Z-lyte, Ser/Thr 18 peptide)
Chain of CLK3 (P49761 whole entry): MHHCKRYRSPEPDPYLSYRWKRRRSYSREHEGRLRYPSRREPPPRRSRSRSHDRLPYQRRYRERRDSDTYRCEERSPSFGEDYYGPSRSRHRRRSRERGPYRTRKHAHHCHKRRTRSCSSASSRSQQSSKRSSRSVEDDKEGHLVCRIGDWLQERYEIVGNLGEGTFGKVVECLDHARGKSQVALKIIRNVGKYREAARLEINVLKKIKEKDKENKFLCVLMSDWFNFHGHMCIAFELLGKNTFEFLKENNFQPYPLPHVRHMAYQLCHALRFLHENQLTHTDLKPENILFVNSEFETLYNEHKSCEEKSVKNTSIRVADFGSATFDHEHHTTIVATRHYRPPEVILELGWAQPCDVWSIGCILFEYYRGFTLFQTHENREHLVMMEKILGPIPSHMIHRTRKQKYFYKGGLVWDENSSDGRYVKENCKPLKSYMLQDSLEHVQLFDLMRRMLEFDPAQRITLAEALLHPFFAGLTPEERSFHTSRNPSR

[3] = system: Wnt-responsive Sp5-Luc reporter in SW480 colon carcinoma cells; assay: Wnt activity screening assay (Sp5-Luc reporter); type: cell-based; conditions: Homo sapiens
Source text: The screening assay for Wnt activity is described as follows. Reporter cell lines can be generated by stably transducing cancer cell lines (e.g., colon cancer) or primary cells (e.g., IEC-6 intestinal cells) with a lentiviral construct that includes a Wnt-responsive promoter driving expression of the firefly luciferase gene.
SW480 colon carcinoma cells were transduced with a lentiviral vector expressing luciferase with a human Sp5 promoter consisting of a sequence of eight TCF/LEF binding sites. […] These stably transduced SW480 cells were expanded in cell culture and used for all further screening activities. […] For Sp5-Luc reporter gene assays, the cells were plated at 4,000 cells/well in 384-well plates with a DMEM medium containing 1% fetal bovine serum, and 1% Penicillin-Streptomycin and incubated for 36 to 48 hours at 37° C. and 5% CO2. Following incubation, 15 μL of BriteLite Plus luminescence reagent (Perkin Elmer) was added to each well of the 384-well assay plates. The plates were placed on an orbital shaker for 2 min and then luminescence was quantified using the Envision (Perkin Elmer) plate reader.

[4] = system: all 50 cell lines; assay: CellTiter-Glo Viability Assay, average across all cell lines; type: cell-based; conditions: Homo sapiens; across all 50 cell lines; read-out: average EC50 for inhibition of cancer cell proliferation
Method: Fifty-one human cancer cell lines (breast cancer (8 cell lines), colorectal cancer (6 cell lines), haematopoietic & lymphoid tumors (13 cell lines), liver cancer (3 cell lines), lung cancer (4 cell lines), ovarian cancer (4 cell lines), pancreatic cancer (8 cell lines), and prostate cancer (5 cell lines)) were tested to determine the effects of representative compounds of Formulas (I)-(XII) on cellular proliferation, as evaluated using the CellTiter-Glo® Viability Assay.
For the Cell Viability Assays, cells were plated at 300-3,000 cells/well in 384-well plates in their respective media containing 1% Penicillin-Streptomycin and incubated for four days at 37° C. and 5% CO2. Twenty-eight replicates of DMSO-treated cells served as controls and cells treated with compound were performed in duplicate.
After incubation, 10 μL of CellTiter-Glo® (Promega) was added to each well allowed to incubate for approximately 12 minutes. This reagent results in cell lysis and generation of a luminescent signal proportional to the amount of ATP present. The amount of ATP is directly proportional to the number of metabolically active, viable cells present in culture. The CellTiter-Glo® Assay generates a luminescent signal, produced by the luciferase reaction (Promega.com).
After incubation, the luminescence signal was read using an EnVision™ Multilabel Plate Reader (Perkin Elmer). Dose-response curves were generated and EC50 concentration values were calculated using Dotmatics' Studies Software (Bishops Stortford, UK).

[5] = system: SW480 colorectal cancer cells; assay: Gene expression qRT-PCR in SW480 cells; type: cell-based; conditions: Homo sapiens
Method: SW480 colorectal cancer cells were plated at 1×10^4 cells per well into 96-well plates (Olympus). Compounds were diluted in cell culture media and added to the cells at a final concentration of 3 μM. Cells were treated with vehicle (DMSO) and compounds for 24 hours. N=3 biological replicates per conditions.
Following treatment, cells were lysed, and cDNA was generated using the Fastlane Cell cDNA Kit (Qiagen).
384-well PCR plates with pre-spotted primers for CLK1, CLK2, CLK3, DVL2, LRP5, SRSF1, SRSF3, SRSF4, SRSF5, TCF7, TCF7L2 were ordered from Bio-Rad. The generated cDNA, along with a SYBR Green qRT-PCR master mix (SsoAdvanced™ Universal SYBR® Green Supermix, Bio-Rad) was added to the PCR plates.
qRT-PCR was performed on the plates using a CFX384 Touch™ Real-Time PCR Detection System (Bio-Rad) with the manufacturer's recommended thermal cycling conditions.
Data from the qRT-PCR assay was normalized to the GAPDH and HPRT1 housekeeping genes and set gene expression fold change was set relative to vehicle-treated cells using the ΔΔCt analysis method.

[6] = SW480 Sp5-Luc reporter, 36 to 48 hours, read-out: EC50
[7] = SW480, 3 μM, 24 hours, relative to DMSO, read-out: gene expression fold change CLK1
[8] = SW480, 3 μM, 24 hours, relative to DMSO, read-out: gene expression fold change CLK2
[9] = SW480, 3 μM, 24 hours, relative to DMSO, read-out: gene expression fold change CLK3
[10] = SW480, 3 μM, 24 hours, relative to DMSO, read-out: gene expression fold change DVL2
[11] = SW480, 3 μM, 24 hours, relative to DMSO, read-out: gene expression fold change LRP5
[12] = SW480, 3 μM, 24 hours, relative to DMSO, read-out: gene expression fold change SRSF1
[13] = SW480, 3 μM, 24 hours, relative to DMSO, read-out: gene expression fold change SRSF3
[14] = SW480, 3 μM, 24 hours, relative to DMSO, read-out: gene expression fold change SRSF4
[15] = SW480, 3 μM, 24 hours, relative to DMSO, read-out: gene expression fold change SRSF5
[16] = SW480, 3 μM, 24 hours, relative to DMSO, read-out: gene expression fold change TCF7
[17] = SW480, 3 μM, 24 hours, relative to DMSO, read-out: gene expression fold change TCF7L2

SMILES	pEC50 [1]	pEC50 [2]	pEC50 [3, 6]	fold induction at 3 µM [5, 7]	fold induction at 3 µM [5, 8]	fold induction at 3 µM [5, 9]	fold induction at 3 µM [5, 10]	fold induction at 3 µM [5, 11]	fold induction at 3 µM [5, 12]	fold induction at 3 µM [5, 13]	fold induction at 3 µM [5, 14]	fold induction at 3 µM [5, 15]	fold induction at 3 µM [5, 16]	fold induction at 3 µM [5, 17]	also measured
CN(C)CCOc1cncc(-c2cc3c(-c4cc5c(-c6cccnc6)ccnc5[nH]4)n[nH]c3cn2)c1 [Compound 49]	8.66	7.71	< 5.00												pEC50 [4]: 5.01
Nc1cncc(-c2ccc3cnc(NC(=O)c4ccc(OC5CCNCC5)cc4)cc3c2)c1 [Compound 20]	9.00	7.72	6.77	0.07	0.08	0.35	0.42	0.37	1.56	0.5	0.33	0.63	0.47	0.6	
CC(C)N1CCC(n2cc(C(=O)Nc3cc4cc(-c5cnn(C)c5)ccc4cn3)cn2)CC1 [Compound 11]	9.00	8.30	7.89	0.02	0.04	0.09	0.11	0.09	0.74	0.17	0.15	0.24	0.19	0.17	
CC(C)CC(=O)Nc1cncc(-c2cc3c(-c4nc5c(-c6cc(F)cc(OCCN7CCCC7)c6)cncc5[nH]4)n[nH]c3cn2)c1 [Compound 45]			< 5.00												pEC50 [4]: 5.07
Cc1ncc(NC(=O)c2n[nH]c3ccc(-c4cnn(C5CCNCC5)c4)cc23)s1 [Compound 5]	9.52	7.57	6.59	0.15	0.12	0.55	0.37	0.43	1.52	0.46	0.27	0.6	0.3	0.24	
CCS(=O)(=O)c1cccc(-c2cc(C(=O)NC3CCN(C)CC3)c(C)c3[nH]c4ncc(C)cc4c23)c1 [Compound 24]	8.52	7.15													fold induction at 3 µM ([5]; SW480, 24 h, read-out: gene expression fold change CLK1): 0.35; fold induction at 3 µM ([5]; SW480, 24 h, read-out: gene expression fold change CLK2): 0.19; fold induction at 3 µM ([5]; SW480, 24 h, read-out: gene expression fold change CLK3): 0.19; fold induction at 3 µM ([5]; SW480, 24 h, read-out: gene expression fold change DVL2): 0.39; fold induction at 3 µM ([5]; SW480, 24 h, read-out: gene expression fold change LRP5): 0.34; fold induction at 3 µM ([5]; SW480, 24 h, read-out: gene expression fold change SRSF1): 0.46; fold induction at 3 µM ([5]; SW480, 24 h, read-out: gene expression fold change SRSF3): 0.31; fold induction at 3 µM ([5]; SW480, 24 h, read-out: gene expression fold change SRSF4): 0.37; fold induction at 3 µM ([5]; SW480, 24 h, read-out: gene expression fold change SRSF5): 0.49; fold induction at 3 µM ([5]; SW480, 24 h, read-out: gene expression fold change TCF7): 0.49; fold induction at 3 µM ([5]; SW480, 24 h, read-out: gene expression fold change TCF7L2): 0.33; pEC50 ([3]; SW480): 6.49
Cc1nc(Nc2n[nH]c3c2CN(C(=O)N[C@H](CN(C)C)c2ccccc2)C3(C)C)c2sccc2n1 [Compound 25]	8.00	6.84	6.94	0.07	0.09	0.08	0.21	0.09	0.2	0.1	0.09	0.19	0.21	0.11	
O=C(Nc1cc2cc(-c3cncc(NC4CCNC[C@@H]4F)n3)ccc2cn1)C1CC1 (some centres unmarked) [Compound 22]	8.70	7.74	7.85	0.04	0.04	0.04	0.41	0.21	0.53	0.18	0.04	0.36	0.75	0.68	
CN1CCC(C(=O)Nc2c[nH]nc2-c2nc3c(-c4cccc(F)c4)cccc3[nH]2)CC1 [Compound 1]	9.00	8.00	7.41	0.02	0.02	0.01	0.14	0.18	0.32	0.13	0.03	0.39	0.44	0.24	
Cc1ncc(-c2cnc3[nH]nc(-c4cc5c(-c6cc(F)cc(NCCN(C)C)c6)ccnc5[nH]4)c3c2)n1C [Compound 52]	8.72	7.58													pEC50 [4]: 5.07
Cc1ccc(-c2cncc3[nH]c(-c4n[nH]c5ccc(-c6cncc(N)c6)nc45)nc23)s1 [Compound 7]	9.00	8.00	7.39												
Cc1n[nH]c2ncc(-c3cncc(OC[C@@H](N)Cc4ccccc4)n3)cc12 [Compound 4]	8.70	5.89	6.28	0.43	0.35	0.74	0.11	0.06	0.25	0.05	0.7	0.27	0.21	0.13	
O=C(Nc1c[nH]nc1-c1nc2c(-c3cccc(F)c3)cncc2[nH]1)C1CCNCC1 [Compound 89]	8.66	7.52	5.66												pEC50 [4]: 5.07
CN(C)Cc1cncc(-c2ccc3[nH]nc(-c4nc5c(-c6cc(F)cc(CNS(C)(=O)=O)c6)ccnc5[nH]4)c3c2F)c1 [Compound 41]	8.70	7.74	6.11												
CN1CCC(Oc2ccc(NC(=O)c3n[nH]c4ccc(-c5cncc(N)c5)cc34)cc2)CC1 [Compound 32]	9.00	7.89	7.07												
